Assay results reported in US8598146B2, “Methods for identifying modulators of protein kinase C-epsilon (PKCε) and method of treatment of aberrant glucose metabolism associated therewith” (Garvan Institute of Medical Research, priority 2003, dated 2013).

Assays:
[1] = tested on: pancreatic islets; test: glucose-stimulated insulin secretion from pancreatic islets with carbamylcholine (FIG. 13); type: cell-based, mouse; conditions: 0.1 mM carbamylcholine with 20 mM glucose; islets from wild type and PKCε−/− mice
[2] = tested on: pancreatic beta cells; conditions: 100 nM glyburide in the presence of 20 mM glucose; cited from earlier work

| SMILES | glucose-stimulated insulin secretion [1] | insulin secretion [2] |
| --- | --- | --- |
| C[N+](C)(C)CCOC(N)=O.[Cl-] [carbamylcholine] | potentiation | – |
| COc1ccc(Cl)cc1C(=O)NCCc1ccc(S(=O)(=O)NC(=O)NC2CCCCC2)cc1 [glyburide] | – | enhances insulin secretion |
